The source of these data is PubChem BioAssay (NCI).

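A five-concentration, 48-hour dose response in 96-well plates underlies each endpoint, interpolated linearly between surrounding concentrations. TGI denotes the concentration required for complete inhibition of growth.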 Where only a bound is given, the exact number is not on record here.

Common to all, as to experiment: inhibition of tumour cell growth, NCI panel, 48 h
For assay [1], the system named is EKVX NSCLC.
Assay [2] has as its system IGROV1 ovarian.
Assay [3] concerns K-562 leukemia.
Assay [4] relates to KM12 colon.
For assay [5], the system named is MALME-3M melanoma.
The test system of assay [6] is NCI-H23 lung.
The subject of assay [7] is SF-539 CNS.
For assay [8], the system named is SK-MEL-5 melanoma.
In assay [9] the test system is TK-10 renal.

With `O=C(O)C1=C(C(=O)Nc2ccc(NC(=O)C3=C(C(=O)O)C4C=CC3C4)cc2)C2C=CC1C2`, the TGI in assay [1], in assay [2], in assay [3], in assay [4], in assay [5] and in [6] was > 100 µM throughout. In addition, the TGI in [7], in [8] and in assay [9] was > 100 µM throughout.
Consider `O=[N+]([O-])c1cccc(C2=NOC3C4CCC(C4)C23)c1` (stereo unspecified), for which the TGI in [2], in [4], in assay [5], in [6], in assay [7] and in assay [8] was > 100 µM throughout. In addition, in assay [9], the TGI is > 100 µM.
With `Cc1ccccc1-n1c(C)nc(-c2ccccc2)cc1=O`, the TGI in [1], in [2], in assay [3], in [4], in [5] and in assay [6] was > 100 µM throughout. In addition, the TGI in assay [7], in assay [8] and in [9] was > 100 µM each time.
As for `N#CC1=C(Cl)NC(Cl)=C(C#N)C1c1c(Cl)cccc1Cl`, the TGI in [1] was > 100 µM; in assay [2] it was > 100 µM; in assay [3], 46.9 µM; in assay [4], 48.6 µM; in [5], > 100 µM; in assay [6] it was > 100 µM. For the same molecule, the results for the TGI in [7], in [8] and in assay [9] were > 100 µM, 39.1 µM and > 100 µM, respectively.
As for `O=C(O)c1ccccc1NC(=O)C1CCCCC1`, the TGI in assay [1], in assay [2], in assay [3], in [4], in [5] and in [7] was > 100 µM throughout. In addition, the TGI in [8] and in assay [9] was > 100 µM throughout.
For the molecule `CCC(Oc1ccc(OC)c2ccccc(=O)c12)C(=O)O` (stereo unspecified), the TGI in assay [1], in assay [2], in assay [3], in assay [4], in assay [5] and in assay [6] was > 100 µM throughout. Besides, the TGI in [7], in [8] and in [9] was > 100 µM throughout.
As to `COC(=O)C1=CC2OC1(C)CCC2=O` (stereo unspecified), the TGI in assay [1], in assay [2], in assay [3], in assay [4], in assay [5] and in assay [6] was > 100 µM throughout. Besides, the TGI in assay [7] and in [9] was > 100 µM in each case.
Consider `Cc1cccc2nc3cccc(C(=O)NCCN(C)C)c3nc12`, for which the TGI in [1] is 2.03 µM; in assay [2], 15.5 µM; in [3], 10.9 µM; in assay [4], 77.3 µM; in [6] it was 3.47 µM; in [7], 1.21 µM. Moreover, the TGI in assay [8] was 1.97 µM; in [9], 5.84 µM.
`COc1ccc2c(c1OC)C(=O)c1cnccc1C2=O`: the TGI in assay [1], in assay [2], in assay [3], in assay [4], in assay [5] and in [6] was > 100 µM in each case. In addition, the TGI in [7], in assay [8] and in assay [9] was > 100 µM each time.
`CCC(=O)N/N=C(\C=C\c1cccc(O)c1)c1sc(Nc2ccc(C)cc2[N+](=O)[O-])nc1C`: the TGI in [1] was > 100 µM; in assay [2], > 100 µM; in [3], > 100 µM; in assay [4], > 100 µM; in assay [5], > 100 µM; in assay [6], 6.72 µM. The TGI in [7], in [8] and in assay [9] was > 100 µM throughout.
As for `CC(C)c1cc(OCC(O)CO)cc(C(C)C)c1` (stereo unspecified), the TGI in assay [1], in assay [2], in [3], in [4], in [5] and in assay [6] was > 100 µM throughout. The TGI in [7], in assay [8] and in [9] was > 100 µM each time.
Take `Cc1cc(Cl)ccc1C1OC(=O)c2c1ccc1ccccc21` (stereo unspecified): the TGI in assay [1], in assay [2], in assay [3], in assay [4], in [5] and in assay [6] was > 100 µM each time. For the same molecule, the TGI in [7], in [8] and in assay [9] was > 100 µM each time.
For the molecule `O=C1NC(=O)C2C1N(Cc1ccccc1)C(=O)N2Cc1ccccc1` (stereo unspecified), the TGI in assay [1], in [2], in [3], in assay [4], in assay [5] and in [6] was > 100 µM throughout. In addition, the TGI in assay [7], in assay [8] and in assay [9] was > 100 µM throughout.
As to `O=C1C=CC(CC(=O)c2ccc3ccccc3c2)O1` (stereo unspecified), the TGI in assay [1] was > 100 µM; in [2], 65.2 µM; in [3], > 100 µM; in [4] it was 31.4 µM; in assay [5], > 100 µM; in assay [6], 46.7 µM. Further, the results for the TGI in assay [7], in assay [8] and in assay [9] were 33.2 µM, > 100 µM and 69.8 µM, respectively.
For the molecule `Nc1n[nH]c(CCc2nc(N)n[nH]2)n1`, the TGI in [1], in assay [2], in [3], in [4], in [5] and in [6] was > 100 µM each time. Moreover, the TGI in assay [7], in assay [8] and in assay [9] was > 100 µM throughout.
As to `O=C(/C=C1/Nc2ccc([N+](=O)[O-])cc2NC1O)c1cccc([N+](=O)[O-])c1` (stereo unspecified), the TGI is > 100 µM in assay [1]; > 100 µM in assay [2]; > 100 µM in assay [3]; > 100 µM in assay [5]; > 100 µM in [6]; 87.2 µM in assay [7]. Also, the TGI is > 100 µM in assay [8] and 88.4 µM in assay [9].
Take `O=C(Nc1ccn(CCI)c(=O)n1)c1ccccc1`: the TGI in assay [1], in assay [2], in [3], in assay [4], in assay [5] and in assay [7] was > 100 µM throughout. Also, the TGI in assay [8] and in assay [9] was > 100 µM each time.
Regarding `Cc1cc2c(C)n(Cc3ccc(Cl)cc3Cl)nc2c(C(=O)O)c1C`, the TGI in assay [1], in [2], in assay [5], in assay [6], in [7] and in assay [9] was > 100 µM in each case.
For `CC12Oc3ccc4ccccc4c3CC1Cc1c(ccc3ccccc13)O2` (stereo unspecified), the TGI in assay [1] is > 100 µM; in assay [4] it was > 100 µM; in assay [5], 17 µM; in assay [6], > 100 µM; in assay [7] it was > 100 µM; in assay [9] it was > 100 µM.
For the molecule `CCOC(=O)C1=C(Nc2ccc(Cl)c(Cl)c2)OC/C1=N\NS(=O)(=O)c1ccc(C)cc1`, the TGI in [1], in assay [2], in assay [3], in [4], in [5] and in assay [6] was > 100 µM throughout. The TGI in [7], in assay [8] and in [9] was > 100 µM each time.
Consider `O=C(CC1C(=O)Nc2ccccc2S1=O)Nc1ccc(Cl)cc1` (stereo unspecified), for which the TGI was > 100 µM in [2]; > 100 µM in [3]; > 100 µM in assay [4]; > 100 µM in assay [5]; > 100 µM in assay [6]; 51.1 µM in assay [7]. In addition, the TGI in [9] was > 100 µM.
Take `COC(=O)C1=C(c2ccc3c(c2)OCO3)OC(c2cc(OC)c(OC)c(OC)c2)C1` (stereo unspecified): the TGI is > 100 µM in assay [1]; 9.53 µM in [2]; > 100 µM in assay [3]; > 100 µM in [5]; > 100 µM in assay [6]; 87.8 µM in assay [7]. Also, the figures for the TGI in [8] and in assay [9] were 60.3 µM and > 100 µM, respectively.
Regarding `CC1=CC(=O)N(c2c(C)cccc2Cl)C(C)N1` (stereo unspecified), the TGI in [1], in assay [2], in assay [3], in assay [4], in assay [5] and in assay [6] was > 100 µM each time. Further, the TGI in assay [7], in [8] and in [9] was > 100 µM each time.
Turning to `CN(C)C(=S)/N=c1\ss/c(=N\S(=O)(=O)c2ccccc2)n1N(C)C`, the TGI in assay [1], in assay [2], in assay [3], in [4], in assay [5] and in [7] was > 100 µM throughout. The TGI in assay [8] and in [9] was > 100 µM in each case.
`O=S(=O)(C/C(=N\O)c1ccccc1)c1ccccc1`: the TGI in assay [1], in assay [2], in assay [3], in assay [4], in [5] and in assay [6] was > 100 µM throughout. Further, the TGI in [7], in assay [8] and in assay [9] was > 100 µM each time.
In the case of `COc1ccc2nc(NC(=O)C(=O)C(C#N)c3ccc(Cl)c(Cl)c3)sc2c1` (stereo unspecified), the TGI in assay [1], in [2], in assay [3], in assay [4], in [5] and in [6] was > 100 µM each time. Also, the TGI in assay [7], in assay [8] and in assay [9] was > 100 µM throughout.
In the case of `O=C(O)CCSC(=O)Nc1ccc(N=Nc2ccccc2)cc1`, the TGI in assay [1], in assay [2], in assay [3], in assay [4], in [5] and in [6] was > 100 µM each time. The TGI in assay [7], in assay [8] and in [9] was > 100 µM in each case.
Take `O=C(O)/C=C/C(=O)N1C/C(=C\c2ccccc2)C(=O)/C(=C/c2ccccc2)C1`: the TGI in assay [1] was 44.3 µM; in assay [2] it was 31.9 µM; in assay [3] it was 7.86 µM; in assay [4] it was 6.07 µM; in assay [5], 12.3 µM; in assay [6] it was 23.9 µM. Moreover, the TGI in assay [7] was 26.7 µM; in [8], 19 µM; in assay [9] it was 22.8 µM.
With `Nn1c(N=Nc2c(O)[nH]c3c(Cl)cc(Cl)cc23)n[nH]c1=S`, the TGI in assay [1], in assay [2], in assay [3], in assay [4], in [5] and in assay [6] was > 100 µM each time. Moreover, the TGI in assay [7], in [8] and in assay [9] was > 100 µM each time.
With `O=C(NS(=O)(=O)c1ccccc1)C(Cc1ccccc1)C(Cc1ccccc1)C(=O)NS(=O)(=O)c1ccccc1` (stereo unspecified), the TGI in [1], in assay [2], in assay [3], in [4], in assay [5] and in [6] was > 100 µM throughout. The TGI in assay [7], in assay [8] and in assay [9] was > 100 µM each time.
Take `CN1CC(=O)N(C)c2nc[nH]c2C1=O`: the TGI in assay [1], in assay [2], in [3], in assay [4], in assay [5] and in assay [6] was > 100 µM throughout. Moreover, the TGI in assay [7], in assay [8] and in assay [9] was > 100 µM each time.
Regarding `Cc1cccc(C(C)(C)C)c1NC(=O)CC1Sc2ccccc2NC1=O` (stereo unspecified), the TGI was > 100 µM in [1]; > 100 µM in [2]; 73.5 µM in [3]; > 100 µM in assay [4]; > 100 µM in assay [5]; > 100 µM in assay [6]. The TGI in [7], in assay [8] and in assay [9] was > 100 µM each time.
